Assay results from patent US9567345B2, “Pharmaceutically active pyrazolo-triazine derivatives” (LEAD DISCOVERY CENTER GMBH, priority 2012, dated 2017).
Read-outs that look alike come from different tables or passages of the source.

Legend:
CDK7/CycH/Mat1 = CDK7/CycH/Mat1 (Homo sapiens, UniProt P50613); assay: CDK7 Enzymatic Activity Assay (Lance Kinase Activity Assay, FRET); type: biochemical
Procedure: (§1) This protocol describes how the Lance Kinase Activity Assay was performed to determine IC50 values of compounds of general formula (I) against CDK/Cyclin complexes. The principle behind this enzymatic assay is based upon the phosphorylation of the Ulight-Peptide Substrat. It is detected by using a specific EU-labeled anti-phospho peptide antibody.
(§2) Binding of an inhibitor to the kinase prevents phosphorylation of the Ulight-MBP Substrat, resulting in a loss of FRET.
CDK7 Enzymatic Activity Assay
(§3) The compounds of general formula (I) exemplary summarized in Table 1 were diluted from a 10 mM DMSO stock solution 1:10 in a total volume of 15 μl DMSO. This compound predilution was then serial diluted 1:3 over 8 steps in DMSO and briefly spun down. Each compound solution was now diluted 1:20 in Enzymatic Buffer (HEPES: 50 mM, pH: 7.5; MgCl2: 10 mM; EGTA: 1 mM; DTT: 2 mM; Tween-20: 0.01%), mixed thoroughly and spun down.
(§4) For positive controls, 2 μl of DMSO working solution were mixed with 6 μl CDK7/CycH/Mat1/substrate working solution and 2 μl ATP working solution. Positive and negative controls were calculated from at least 8 different wells. The 384 well plates were mixed in a Teleshaker plate mixer (Beckman Coulter, Brea, Calif., USA) at 2000 rpm for 40 sec, and incubated for 1 h at room temperature before addition of 10 μl LANCE Detection Buffer (1×; EDTA: […]; Eu-Anti-P-MBP: 4 nM) per well. Plates were mixed in a Teleshaker plate mixer (Beckman Coulter, Brea, Calif., USA) at 2000 rpm for 40 sec, followed by incubation with Detection Buffer for 1 h, and reading. […] IC50 values were determined from the sigmoidal dose response curves with the software Quattro Workflow (Quattro GmbH, Munich, Germany).

CDK9/Cyclin T1 = CDK9/Cyclin T1 (Homo sapiens, UniProt P50750); assay: CDK9 Enzymatic Activity Assay (Lance Kinase Activity Assay, FRET); type: biochemical; conditions: for IC50: Table 5B, class symbols per IC50 [nM] ranges of b581, read-out: CDK9: Selectivity of CDK7 inhibition over CDK9 inhibition
CDK9/Cyclin T1, sequence (P50750 whole entry): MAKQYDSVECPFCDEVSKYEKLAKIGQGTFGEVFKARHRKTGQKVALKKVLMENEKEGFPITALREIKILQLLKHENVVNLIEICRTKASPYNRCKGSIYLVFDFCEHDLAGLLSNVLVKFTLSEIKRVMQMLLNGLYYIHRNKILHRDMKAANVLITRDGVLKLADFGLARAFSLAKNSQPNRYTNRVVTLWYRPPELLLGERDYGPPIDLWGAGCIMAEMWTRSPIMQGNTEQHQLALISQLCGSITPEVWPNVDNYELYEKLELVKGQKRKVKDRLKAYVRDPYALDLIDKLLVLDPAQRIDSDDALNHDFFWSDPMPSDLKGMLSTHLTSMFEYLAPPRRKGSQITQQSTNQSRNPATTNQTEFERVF
CDK9/Cyclin T1, sequence (O60563 whole entry partner): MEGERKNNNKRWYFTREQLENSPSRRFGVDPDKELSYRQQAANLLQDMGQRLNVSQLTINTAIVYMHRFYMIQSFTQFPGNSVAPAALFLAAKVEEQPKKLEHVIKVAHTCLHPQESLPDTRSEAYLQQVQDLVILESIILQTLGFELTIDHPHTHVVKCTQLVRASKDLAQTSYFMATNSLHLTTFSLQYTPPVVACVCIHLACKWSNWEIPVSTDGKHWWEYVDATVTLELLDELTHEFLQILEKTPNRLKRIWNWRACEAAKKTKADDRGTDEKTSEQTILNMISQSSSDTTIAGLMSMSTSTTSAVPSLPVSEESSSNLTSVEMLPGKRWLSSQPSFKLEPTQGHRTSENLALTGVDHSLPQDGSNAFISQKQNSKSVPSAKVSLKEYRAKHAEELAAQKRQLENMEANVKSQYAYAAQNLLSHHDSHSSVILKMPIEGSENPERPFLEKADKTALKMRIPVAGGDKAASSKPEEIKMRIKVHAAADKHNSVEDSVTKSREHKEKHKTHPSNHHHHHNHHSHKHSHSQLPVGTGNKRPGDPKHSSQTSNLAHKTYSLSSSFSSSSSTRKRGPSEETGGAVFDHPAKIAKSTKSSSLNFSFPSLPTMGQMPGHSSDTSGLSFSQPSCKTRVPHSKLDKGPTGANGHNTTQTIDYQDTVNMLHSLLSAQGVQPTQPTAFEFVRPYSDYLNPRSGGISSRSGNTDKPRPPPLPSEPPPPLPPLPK
Procedure: as §1, §2
CDK9 Enzymatic Activity Assay
as §3
as §4, with “CDK9/cyclin T1/substrate” for “CDK7/CycH/Mat1/substrate”

[1] = CDK7/CycH/Mat1, 25 μM ATP final, class ranges, read-out: CDK7: IC50 [nM] for CDK7 inhibition

CDK7/CycH/Mat1, sequence (P50613 whole entry): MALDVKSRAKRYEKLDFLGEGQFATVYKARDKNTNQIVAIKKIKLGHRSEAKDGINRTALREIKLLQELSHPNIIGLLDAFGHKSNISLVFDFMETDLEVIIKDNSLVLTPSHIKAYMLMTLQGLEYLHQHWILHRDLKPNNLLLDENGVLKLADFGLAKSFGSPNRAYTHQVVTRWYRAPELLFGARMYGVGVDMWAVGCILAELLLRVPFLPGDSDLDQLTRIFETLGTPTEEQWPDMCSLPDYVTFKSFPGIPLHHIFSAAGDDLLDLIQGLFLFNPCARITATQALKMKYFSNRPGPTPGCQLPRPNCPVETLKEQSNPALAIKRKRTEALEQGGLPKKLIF

| SMILES | IC50 (CDK7/CycH/Mat1; [1]) [nM] | IC50 (CDK9/Cyclin T1) [nM] | IC50 (CDK7/CycH/Mat1; Table 6, read-out: IC50 CDK7) [nM] | Selectivity CDK7 over CDK9 (CDK9/Cyclin T1; Table 6) [fold] |
| --- | --- | --- | --- | --- |
| CC(C)c1cnn2c(NCc3ccccc3-n3cccn3)nc(N3CCC4(CCN4)CC3)nc12 [(VIII-20), N-(2-(1H-pyrazol-1-yl)benzyl)-8-isopropyl-2-(1,7-diazaspiro[3.5]nonan-7-yl)pyrazolo[1,5-a][1,3,5]triazin-4-amine] | < 5 | > 2500 |  |  |
| CC(C)c1cnn2c(NCc3ccccc3-n3cccn3)nc(N3CCC4(CCCNC4)C3)nc12 (stereo not drawn) [(VIII-27), N-(2-(1H-pyrazol-1-yl)benzyl)-8-isopropyl-2-(2,7-diazaspiro[4.5]decan-2-yl)pyrazolo[1,5-a][1,3,5]triazin-4-amine] | 5 to 10 | > 2500 |  |  |
| CC(C)c1cnn2c(NCc3ccccc3-c3cccnc3)nc(OC3CCN(C)CC3)nc12 [(VII-45), 8-isopropyl-2-((1-methylpiperidin-4-yl)oxy)-N-(2-(pyridin-3-yl)benzyl)pyrazolo[1,5-a][1,3,5]triazin-4-amine] | < 5 | > 2500 |  |  |
| CC(C)c1cnn2c(NCc3ccccc3-c3ccccc3)nc(OC3CCN(C)CC3)nc12 [(VII-57), N-([1,1′-biphenyl]-2-ylmethyl)-8-isopropyl-2-((1-methylpiperidin-4-yl)oxy)pyrazolo[1,5-a][1,3,5]triazin-4-amine] | < 5 | > 2500 | < 5 | 909 |
| CC(C)c1cnn2c(NCc3ccccc3N(C)C)nc(OC3CCN(C)CC3)nc12 [(VII-54), N-(2-(dimethylamino)benzyl)-8-isopropyl-2-((1-methylpiperidin-4-yl)oxy)pyrazolo[1,5-a][1,3,5]triazin-4-amine] | 5 to 10 | 50 to 500 |  |  |
| CC(C)c1cnn2c(NCc3ccccc3-n3cncn3)nc(O[C@@H]3CCCNC3)nc12 [(VII-20), (R)-N-(2-(1H-1,2,4-triazol-1-yl)benzyl)-8-isopropyl-2-(piperidin-3-yloxy)pyrazolo[1,5-a][1,3,5]triazin-4-amine] | < 5 | 500 to 2500 |  |  |
| CC(C)c1cnn2c(NCc3ccccc3N3CCC3=O)nc(O[C@@H]3CCCNC3)nc12 [(VII-40), (R)-1-(2-(((8-isopropyl-2-(piperidin-3-yloxy)pyrazolo[1,5-a][1,3,5]triazin-4-yl)amino)methyl)phenyl)azetidin-2-one] | > 25 | > 2500 |  |  |
| Cc1nccn1-c1ccccc1CNc1nc(OC2CCNCC2)nc2c(C(C)C)cnn12 [(VII-24), 8-isopropyl-N-(2-(2-methyl-1H-imidazol-1-yl)benzyl)-2-(piperidin-4-yloxy)pyrazolo[1,5-a][1,3,5]triazin-4-amine] | < 5 | > 2500 |  |  |
| Cc1nccn1-c1ccccc1CNc1nc(O[C@@H]2CCNC2)nc2c(C(C)C)cnn12 [(VII-25), (R)-8-isopropyl-N-(2-(2-methyl-1H-imidazol-1-yl)benzyl)-2-(pyrrolidin-3-yloxy)pyrazolo[1,5-a][1,3,5]triazin-4-amine] | < 5 | > 2500 |  |  |
| CC(C)c1cnn2c(NCc3ccccc3-n3cccn3)nc(N3CCC34CNC4)nc12 [(VIII-08), N-(2-(1H-pyrazol-1-yl)benzyl)-8-isopropyl-2-(1,6-diazaspiro[3.3]heptan-1-yl)pyrazolo[1,5-a][1,3,5]triazin-4-amine] | 5 to 10 | > 2500 |  |  |
| CC(C)c1cnn2c(N[C@@H](C)c3ccccc3Cl)nc(O[C@@H]3CCCNC3)nc12 [(VII-28), N-((S)-1-(2-chlorophenyl)ethyl)-8-isopropyl-2-((R)-piperidin-3-yloxy)pyrazolo[1,5-a][1,3,5]triazin-4-amine] | < 5 | > 2500 |  |  |
| CC(C)c1cnn2c(NCc3ccccc3-n3cccn3)nc(N3CCC4(CCNC4)C3)nc12 (stereo not drawn) [(VIII-03), N-(2-(1H-pyrazol-1-yl)benzyl)-8-isopropyl-2-(2,7-diazaspiro[4.4]nonan-2-yl)pyrazolo[1,5-a][1,3,5]triazin-4-amine] | < 5 | > 2500 |  |  |
| CC(C)c1cnn2c(NCc3ccccc3-n3cccn3)nc(N3CCC4(CC3)CNC4)nc12 [(VIII-16), N-(2-(1H-pyrazol-1-yl)benzyl)-8-isopropyl-2-(2,7-diazaspiro[3.5]nonan-7-yl)pyrazolo[1,5-a][1,3,5]triazin-4-amine] | < 5 | > 2500 |  |  |
| CC(C)c1cnn2c(NCc3ccccc3-n3cccn3)nc(N3CCCC4(CCCNC4)C3)nc12 (stereo not drawn) [(VIII-14), N-(2-(1H-pyrazol-1-yl)benzyl)-8-isopropyl-2-(2,8-diazaspiro[5.5]undecan-2-yl)pyrazolo[1,5-a][1,3,5]triazin-4-amine] | 10 to 25 | > 2500 |  |  |
| CC(C)c1cnn2c(NCc3ccccc3-n3cccn3)nc(N3CCCC34CCNC4)nc12 (stereo not drawn) [(VIII-13), N-(2-(1H-pyrazol-1-yl)benzyl)-8-isopropyl-2-(1,7-diazaspiro[4.4]nonan-1-yl)pyrazolo[1,5-a][1,3,5]triazin-4-amine] | 5 to 10 | > 2500 |  |  |
| CC(C)c1cnn2c(NCc3ccccc3-n3cccn3)nc(N3CCC34CCCNC4)nc12 (stereo not drawn) [(VIII-04), N-(2-(1H-pyrazol-1-yl)benzyl)-8-isopropyl-2-(1,6-diazaspiro[3.5]nonan-1-yl)pyrazolo[1,5-a][1,3,5]triazin-4-amine] | 10 to 25 | > 2500 |  |  |
| CC(C)Oc1ccccc1CNc1nc(OC2CCN(C)CC2)nc2c(C(C)C)cnn12 [(VII-66), N-(2-isopropoxybenzyl)-8-isopropyl-2-((1-methylpiperidin-4-yl)oxy)pyrazolo[1,5-a][1,3,5]triazin-4-amine] | < 5 | > 2500 |  |  |
| Cc1nccn1-c1ccccc1CNc1nc(OC2CCN(C)CC2)nc2c(C(C)C)cnn12 [(VII-75), 8-isopropyl-N-(2-(2-methyl-1H-imidazol-1-yl)benzyl)-2-((1-methylpiperidin-4-yl)oxy)pyrazolo[1,5-a][1,3,5]triazin-4-amine] | < 5 | > 2500 |  |  |
| CC(C)c1cnn2c(NCc3ccccc3-n3cccn3)nc(N3CCC4(CNC4)C3)nc12 [(VIII-07), N-(2-(1H-pyrazol-1-yl)benzyl)-8-isopropyl-2-(2,6-diazaspiro[3.4]octan-6-yl)pyrazolo[1,5-a][1,3,5]triazin-4-amine] | < 5 | > 2500 |  |  |
| CC(C)c1cnn2c(NCc3ccccc3C#N)nc(OC3CCN(C)CC3)nc12 [(VII-55), 2-(((8-isopropyl-2-((1-methylpiperidin-4-yl)oxy)pyrazolo[1,5-a][1,3,5]triazin-4-yl)amino)methyl)benzonitrile] | 10 to 25 | > 2500 |  |  |
| CC(C)c1cnn2c(NCc3c(Cl)cccc3Cl)nc(OC3CCN(C)CC3)nc12 [(VII-63), N-(2,6-dichlorobenzyl)-8-isopropyl-2-((1-methylpiperidin-4-yl)oxy)pyrazolo[1,5-a][1,3,5]triazin-4-amine] | 10 to 25 | > 2500 |  |  |
| CC(C)c1cnn2c(NCc3ccccc3-n3cccn3)nc(N3CC4(CCCNC4)C3)nc12 [(VIII-05), N-(2-(1H-pyrazol-1-yl)benzyl)-8-isopropyl-2-(2,6-diazaspiro[3.5]nonan-2-yl)pyrazolo[1,5-a][1,3,5]triazin-4-amine] | < 5 | > 2500 |  |  |
| CC(C)c1cnn2c(NCc3ccccc3-n3cccn3)nc(N3CCC4(CCNC4)CC3)nc12 [(VIII-09), N-(2-(1H-pyrazol-1-yl)benzyl)-8-isopropyl-2-(2,8-diazaspiro[4.5]decan-8-yl)pyrazolo[1,5-a][1,3,5]triazin-4-amine] | 5 to 10 | > 2500 |  |  |
